Experimental data taken from patent US20230233580A1, “USE OF OXYGENATED CHOLESTEROL SULFATES FOR CANCERS AND NON-CANCEROUS TRANSFORMATIONS RELATED TO EPSTEIN-BARR VIRUS” (priority 2020, published 2023).
Where “and” joins values, the source holds several entries; their conditions need not be identical. Equal values may be shown once.

Experiments:
[1] = system: Huh-7 cells; experiment: Whole genome bisulfite sequencing (WGBS), promoter 5mCpG demethylation; assay type: cell-based, human; conditions: Huh-7, HG 72 h, 25 μM 4 h
Method: Each sample, 2 μg, was sent to EpigenDx, Inc. (Hopkinton, Mass.) for analysis of global methylation bisulfite sequencing. The same samples, 6 μg, were sent to Novogene Co., Ltd (Tianjin, China) for analysis of whole genome bisulfite sequencing (WGBS). Total RNA was isolated using the Promega SV total RNA isolation system (Madison, Wis.) with DNase treatment. Each sample, 2 μg, was used for the first-strand cDNA synthesis as recommended by the manufacturer (Invitrogen, Carlsbad, Calif.). Real-time RT-PCR was performed using SYBR Green as the indicator on ABI 7500 Fast Real-Time PCR System (Applied Biosystems, Foster City, Calif.). Amplifications of j-actin or GAPDH were used as internal controls. Relative messenger RNA (mRNA) expression was quantified with the comparative cycle threshold (Ct) method using the primer set shown in Table 1.1 and was expressed as 2^−ΔΔct.
Each sample, 5.2 μg of genomic DNA spiked with 26 ng lambda DNA, was fragmented by sonication to 200-300 bp with Covaris S220, followed by end repair and adenylation. Cytosine-methylated barcodes were ligated to sonicated DNA per the manufacturer's instructions. These DNA fragments were treated twice with bisulfite using EZ DNA Methylation-Gold™ Kit™ (Zymo Research) before the resulting single-strand DNA fragments were PCR amplified using KAPA HiFi Hot Start Uracil and Ready Mix (2×). Library concentration was quantified by Qubit® 2.0 Flurometer (Life Technologies, CA, USA) and quantitative PCR, and the insert size was assayed on an Agilent Bioanalyzer 2100 system.
The library preparations were sequenced on an Illumina Hiseq 2500/4000 or Novaseq™ platform and 125 bp/150 bp paired-end reads were generated. Image analysis and base calling were performed with Illumina CASAVA pipeline. Trimmomatic (Trimmomatic-0.36) software was used for quality control. Bismark software (version 0.16.3; Krueger F, 2011) was used to perform alignments of bisulfite-treated reads to a reference genome (−X 700-dovetail). DSS software (23) was used to identify differentially methylated regions (DMRs). KOBAS software was used to test the statistical enrichment of DMR related genes in the Kyoto Encyclopedia of Genes and Genomes (KEGG) pathways.
Each sample (6 μg) was used for analysis of the whole genome bisulfite sequencing (WGBS).

[2] = Metabolite profiling of plasma, urine, feces, intravenous dose; assay type: in vivo, rats; conditions: intravenous 10 mg/kg
Method: Plasma pools were made from Group 1 rats at the 0.083, 0.25, 0.5, and 1-hour collection time points.
Urine pools were prepared for Group 2 at 0 to 6 and 6 to 12 hours post-dose.
Feces pools were prepared for Group 2 at 0 to 12, 12 to 24, and 24 to 48 hours post-dose.

amount in feces, % of dose ([2]; 0 to 48 hours post-dose pools): 2 % of dose | share of the exposure (AUC) to 25HC3S related radioactivity, plasma ([2]; up to 1 hour post-dose): approximately 54%
SMILES: C[C@H](CCCC(C)(C)O)[C@H]1CC[C@H]2[C@@H]3CC=C4C[C@@H](OS(=O)(=O)O)CC[C@]4(C)[C@H]3CC[C@]12C [25HC3S, 5-Cholesten-3β, 25-diol 3-sulfate]
DMR (Methylation %) 25HC3S-Vehicle, DRD5P2 promoter ([1]; Chr1 1.43E+08): −34.73% | DMR (Methylation %) 25HC3S-Vehicle, ITPKB promoter ([1]; Chr1 2.27E+08): −25.12% | DMR (Methylation %) 25HC3S-Vehicle, MAP4K4 promoter ([1]; Chr2 1.02E+08): −13.63% | DMR (Methylation %) 25HC3S-Vehicle, ROCK2 promoter ([1]; Chr2 11344628-11344733): −23.14% | DMR (Methylation %) 25HC3S-Vehicle, PPP1CB promoter ([1]; Chr2 28751716-28751798): −10.93% | DMR (Methylation %) 25HC3S-Vehicle, ADCY5 promoter ([1]; Chr3 1.23E+08): −30.44% | DMR (Methylation %) 25HC3S-Vehicle, HRH1 promoter ([1]; Chr3 11154292-11154354): −25.48% | DMR (Methylation %) 25HC3S-Vehicle, PLCD1 promoter ([1]; Chr3 38029863-38030016): −24.31% | DMR (Methylation %) 25HC3S-Vehicle, DUSP7 promoter ([1]; Chr3 52056416-52056485): −40.47% | DMR (Methylation %) 25HC3S-Vehicle, CACNA1D promoter ([1]; Chr3 53494583-53494705): −20.46% | DMR (Methylation %) 25HC3S-Vehicle, RAPGEF2 promoter ([1]; Chr4 1.59E+08): −36.05% | DMR (Methylation %) 25HC3S-Vehicle, PDE4D promoter ([1]; Chr5 59893498-59893718): −27.84% | DMR (Methylation %) 25HC3S-Vehicle, AFDN promoter ([1]; Chr6 1.68E+08): −30.68% | DMR (Methylation %) 25HC3S-Vehicle, AL671762.1 promoter ([1]; Chr6 31828019-31828149): −27.17% | DMR (Methylation %) 25HC3S-Vehicle, CREB5 promoter ([1]; Chr7 28489448-28489601): −29.31% | DMR (Methylation %) 25HC3S-Vehicle, GLI3 promoter ([1]; Chr7 42228171-42228223): −19.62% | DMR (Methylation %) 25HC3S-Vehicle, ADCY1 promoter ([1]; Chr7 45574500-45574591): −14.76% | DMR (Methylation %) 25HC3S-Vehicle, VAV2 promoter ([1]; Chr9 1.34E+08): −33.11% | DMR (Methylation %) 25HC3S-Vehicle, GNAQ promoter ([1]; Chr9 78032198-78032440): −11.92% | DMR (Methylation %) 25HC3S-Vehicle, PTCH1 promoter ([1]; Chr9 95508446-95508561): −12.09% | DMR (Methylation %) 25HC3S-Vehicle, GABBR2 promoter ([1]; Chr9 98708549-98708610): −21.84% | DMR (Methylation %) 25HC3S-Vehicle, ADRB1 promoter ([1]; Chr10 1.14E+08): −33.1% | DMR (Methylation %) 25HC3S-Vehicle, CACNB2 promoter ([1]; Chr10 18140401-18140547): −21.91% | DMR (Methylation %) 25HC3S-Vehicle, MAPK8 promoter ([1]; Chr10 48306510-48306561): −29.24% | DMR (Methylation %) 25HC3S-Vehicle, HRAS promoter ([1]; Chr11 535071-535127): −18.85% | DMR (Methylation %) 25HC3S-Vehicle, DUSP8 promoter ([1]; Chr11 1572973-1573032): −30.51% | DMR (Methylation %) 25HC3S-Vehicle, BAD promoter ([1]; Chr11 64286088-64286179): −42.33% | DMR (Methylation %) 25HC3S-Vehicle, RELA promoter ([1]; Chr11 65661914-65662035): −35.1% | DMR (Methylation %) 25HC3S-Vehicle, CACNA1C-AS1 promoter ([1]; Chr12 2691335-2691438): −20.97% | DMR (Methylation %) 25HC3S-Vehicle, NTF3 promoter ([1]; Chr12 5432796-5432882): −33.48% | DMR (Methylation %) 25HC3S-Vehicle, EDNRB promoter ([1]; Chr13 77919496-77919743): −34.09% | DMR (Methylation %) 25HC3S-Vehicle, ABCC4 promoter ([1]; Chr13 95301634-95301736): −33.06% | DMR (Methylation %) 25HC3S-Vehicle, ADCY4 promoter ([1]; Chr14 24334570-24334719): −18.63% | DMR (Methylation %) 25HC3S-Vehicle, MAX promoter ([1]; Chr14 65102273-65102358): −31.75% | DMR (Methylation %) 25HC3S-Vehicle, SLC8A3 promoter ([1]; Chr14 70188747-70189089): −28.51% | DMR (Methylation %) 25HC3S-Vehicle, TGFB3 promoter ([1]; Chr14 75982395-75982557): −23.74% | DMR (Methylation %) 25HC3S-Vehicle, CACNA1H promoter ([1]; Chr16 1194928-1195015): −26.48% | DMR (Methylation %) 25HC3S-Vehicle, GRIN2A promoter ([1]; Chr16 10183302-10183414): −19.63% | DMR (Methylation %) 25HC3S-Vehicle, GRIN2C promoter ([1]; Chr17 74861739-74861853): −37.6% and −37.64% | DMR (Methylation %) 25HC3S-Vehicle, SPHK1 promoter ([1]; Chr17 76383180-76383291): −24.74% | DMR (Methylation %) 25HC3S-Vehicle, GRIN3B promoter ([1]; Chr19 1000331-1000405): −34.67% | DMR (Methylation %) 25HC3S-Vehicle, GADD45B promoter ([1]; Chr19 2474806-2474873): −28.6% | DMR (Methylation %) 25HC3S-Vehicle, GNA11 promoter ([1]; Chr19 3094383-3094442): −32.66% | DMR (Methylation %) 25HC3S-Vehicle, AC005264.2 promoter ([1]; Chr19 3156392-3156457): −15.76% | DMR (Methylation %) 25HC3S-Vehicle, CACNA1A promoter ([1]; Chr19 13226635-13226711): −39.91% | DMR (Methylation %) 25HC3S-Vehicle, CTB-186G2.1 promoter ([1]; Chr19 38596260-38596495): −34.3% | DMR (Methylation %) 25HC3S-Vehicle, MAP4K1 promoter ([1]; Chr19 38596260-38596495): −34.3% | DMR (Methylation %) 25HC3S-Vehicle, ATP1A3 promoter ([1]; Chr19 41999134-41999316): −15.75% | DMR (Methylation %) 25HC3S-Vehicle, GIPR promoter ([1]; Chr19 45668710-45668767): −10.04% | DMR (Methylation %) 25HC3S-Vehicle, CACNG8 promoter ([1]; Chr19 53961377-53961479): −31.18% | DMR (Methylation %) 25HC3S-Vehicle, GNAS promoter ([1]; Chr20 58888598-58888893): −25.68% | DMR (Methylation %) 25HC3S-Vehicle, MAPK1 promoter ([1]; Chr22 21867450-21867512): −7.66% | DMR (Methylation %) 25HC3S-Vehicle, PDGFB promoter ([1]; Chr22 39243967-39244084): −30.51%
